Data on 106 compounds can be found in the CATMoS acute toxicity set (Mansouri et al. 2021).

This data set in a line: GHS categories as the set defines them, by LD50: 1 up to 5, 2 up to 50, 3 up to 300, 4 up to 2000, 5 above 2000 mg/kg. The following applies: rat; in vivo; po.
`CC1(c2ccc(Oc3ccccc3)cc2)OC(=O)N(Nc2ccccc2)C1=O` (stereo unspecified): the GHS category was determined as 5.

The compound `C1C[C@@H]2[C@H]3CC[C@H](C3)[C@@H]2C1` returned a GHS category of 5.

In the case of `C[Si](C)(CCCN)N1CCC[Si]1(C)C`, the GHS category was determined as 4.

`O=C1C=CC(=O)N1c1ccc(Cc2ccc(N3C(=O)C=CC3=O)cc2)cc1` displayed a GHS category of 5.

`CCN1CCN(C(=O)N[C@@H](C(=O)N[C@@H]2C(=O)N3[C@@H]2SC(C)(C)[C@H]3C(=O)O)c2ccccc2)C(=O)C1=O` yielded a GHS category of 5.

`O=C1OC(=O)c2c(Cl)c(Cl)c(Cl)c(Cl)c21` showed a GHS category of 5.

In turn, `COc1ccccc1C1NC(=O)CCS1` (stereo unspecified) returned a GHS category of 5.

In turn, `CN1CC(c2ccnn2-c2ccccc2)CC2c3cccc4[nH]cc(c34)CC21` (stereo unspecified) came in with a GHS category of 4.

Turning to `CCC(C)(Oc1ccc(C2(c3ccc(OC(C)(CC)C(=O)O)cc3)CCCCC2)cc1)C(=O)O` (stereo unspecified), the GHS category was 5.

As to `CCCCCCCCCCCCCC(=O)O`, the GHS category came to 5.

Compound `CCC=CCC=CCC=CCC=CCCCCC(=O)OCC` showed a GHS category of 5.

Turning to `COC(=O)c1sc(N)c(C#N)c1C`, the GHS category is reported as 5.

With `C=C(C)C(=O)O[Si](C(C)C)(C(C)C)C(C)C`, the GHS category was 5.

`CCCCCCCCCCCCCCOC(=O)CCCCCCCCCCCCC` gave a GHS category of 5.

`COc1ccc(COC(=O)Cc2ccccc2)cc1` came in with a GHS category of 5.

In the case of `N=C1C=CC2=CC(S(=O)(=O)O)=CC(=O)C2=C1NNc1ccc(-c2ccc(N=Nc3cc(S(=O)(=O)O)c4ccccc4c3N)cc2)cc1`, the GHS category was found to be 5.

In turn, `C=COCCCCCCCCCCCCCCCCCC` came in with a GHS category of 5.

Compound `c1ccc(-c2nc3ccccc3o2)cc1` displayed a GHS category of 5.

Compound `O=C(OCCCc1ccccc1)c1ccccc1` yielded a GHS category of 5.

With `CN(C)CCOc1nn(-c2cccc(C(F)(F)F)c2)c2ncccc12`, the GHS category is 4.

With `CN1C[C@H](c2ccnn2C)CC2c3cccc4[nH]cc(c34)C[C@H]21` (stereo partly specified), the GHS category is 4.

As to `CCCCc1nc(C=O)c(Cl)[nH]1`, the GHS category is 5.

For `CC(C)CCCCCCOC(=O)C1CCCCC1C(=O)OCCCCCCC(C)C` (stereo unspecified), the GHS category is 5.

As to `O=Cc1cc([N+](=O)[O-])ccc1Cl`, the GHS category came out at 5.

For the compound `COCCCCC(=O)c1ccc(C(F)(F)F)cc1`, the GHS category came out at 5.

Compound `CCCC(C)O` (stereo unspecified) showed a GHS category of 5.

With `CC(=O)OCCOC(C)C`, the GHS category is 4.

With `COC(=O)CBr`, the GHS category stood at 3.

In turn, `Nc1nc2cc([N+](=O)[O-])ccc2o1` registered a GHS category of 4.

`CN[C@H](CC(C)C)C(=O)N[C@H]1C(=O)N[C@@H](CC(N)=O)C(=O)N[C@H]2C(=O)N[C@H]3C(=O)N[C@H](C(=O)N[C@@H](C(=O)O)c4cc(O)cc(O)c4-c4cc3ccc4O)[C@H](O)c3ccc(c(Cl)c3)Oc3cc2cc(c3O[C@@H]2O[C@H](CO)[C@@H](O)[C@H](O)[C@H]2O[C@H]2C[C@](C)(N)C(O)[C@H](C)O2)Oc2ccc(cc2Cl)[C@H]1O` (stereo partly specified) gave a GHS category of 5.

`CCCCCCCCCC[C@H]1O[C@H]1CCCCC(C)C` registered a GHS category of 5.

`CCOc1nc2cccc(C(=O)O)c2n1Cc1ccc(-c2ccccc2-c2nnn[nH]2)cc1` registered a GHS category of 5.

`CCCCCCCC(=O)N(CCO)CCO` returned a GHS category of 5.

In turn, `Cc1cccc2ncc(C(=O)NC(C)C)c(=O)n12` had a GHS category of 3.

In turn, `CCOC(C)OCCc1ccccc1` (stereo unspecified) gave a GHS category of 5.

In the case of `CC12CCC(O)C=C1C(O)CC1(O)C2CCC2(C)C(c3ccc(=O)oc3)CCC21O` (stereo unspecified), the GHS category amounted to 2.

Take `Nc1nc2c(s1)CC(N)CC2` (stereo unspecified): the GHS category is 4.

The compound `CCCCN(CCCC)C(=S)SCSC(=S)N(CCCC)CCCC` yielded a GHS category of 5.

In turn, `CC(C)OC(=O)C(C)(C)Br` displayed a GHS category of 5.

Turning to `O=C(O)c1ccccc1C(=O)c1ccc(-c2ccccc2)cc1`, the GHS category worked out at 5.

Consider `CC1(C)Oc2cc(C(=O)c3ccccc3)ccc2NC1=O`, for which the GHS category is listed as 5.

Consider `Cc1cc2cc3c(C)cc(=O)oc3c(C)c2o1`, for which the GHS category is 5.

For the compound `CCCCOC(=O)C=Cc1ccccc1`, the GHS category is 5.

`CC(C)COP(O)(=S)OCC(C)C` gave a GHS category of 5.

Compound `C=CCCCCCCCCC(=O)OCC` displayed a GHS category of 5.

Compound `CCOC(=O)c1nn(-c2ccc(OC)cc2)c2c1CCN(c1ccc(N3CCCCC3=O)cc1)C2=O` displayed a GHS category of 5.

With `CCC(COC(=O)c1ccccc1C(=O)OCC(CC)CC(C)C)CC(C)C` (stereo unspecified), the GHS category came out at 5.

Turning to `CC(C)=CC/C(C)=C/COC(=O)c1ccccc1`, the GHS category is 5.

On to `ClC1C(Br)C(Br)C(Br)C(Br)C1Br` (stereo unspecified), for which the GHS category stood at 5.

With `Nc1nc(-c2ccc3ccccc3c2)cs1`, the GHS category is recorded as 5.

In turn, `CCO[Si](CN1CCOCC1)(OCC)OCC` registered a GHS category of 5.

For `Cn1ccnc1Cc1nn[nH]n1`, the GHS category was 5.

The compound `C=CCN1CCC23c4c5ccc(O)c4OC2C(=O)CCC3(O)C1C5` (stereo unspecified) gave a GHS category of 4.

`O=c1c2n[nH]nc2nc2sc(CCC3CCCCC3)nn12` registered a GHS category of 5.

`C=CCCCCCCCCC(C)CCCCCCCC` (stereo unspecified) had a GHS category of 5.

As to `CCC/C=C/COC(C)=O`, the GHS category turned out to be 5.

As to `COc1cc2c(cc1OC)[C@@H]1C[C@H](C[C@H]3CCCCN31)OC(=O)C=Cc1ccc(O)c-2c1`, the GHS category is recorded as 4.

`CC1CC(OC(=O)C(C)Oc2ccccc2Cl)CC(C)(C)C1` (stereo unspecified) registered a GHS category of 5.

As to `O=C(C=Cc1ccccc1)NCCO`, the GHS category is 5.

As to `CCC(C)=NO[Si](ON=C(C)CC)(ON=C(C)CC)c1ccccc1`, the GHS category amounted to 5.

In turn, `CCO[Si](CCCNC=O)(OCC)OCC` showed a GHS category of 5.

In the case of `Cc1cccc2ncc(C(=O)NC(C)(C)C)c(=O)n12`, the GHS category was found to be 3.

As for `COc1cc(OC)nc(NC(=O)Oc2ccccc2)n1`, the GHS category worked out at 5.

`CCCc1c(Cc2ccc(-c3ccccc3-c3nn[nH]n3)cc2)c(N)nc2ncnn12` gave a GHS category of 4.

Regarding `COc1ccccc1OCCNCC(O)COc1cccc2[nH]c3ccccc3c12` (stereo unspecified), the GHS category is listed as 5.

`CCC(C)C(=O)OCCc1ccccc1` (stereo unspecified) registered a GHS category of 5.

As for `CC(F)(Cl)Cl`, the GHS category came out at 5.

`COC(=O)C(C=O)c1ccccc1` (stereo unspecified) registered a GHS category of 4.

Consider `C[Si](C)(C)[Si](C)(C)C`, for which the GHS category was 5.

The compound `CCOP(=S)(Oc1cnc(C(C)(C)C)nc1)OC(C)C` (stereo unspecified) registered a GHS category of 1.

Compound `CCCCC(=O)N(Cc1ccc(-c2ccccc2-c2nnn[nH]2)cc1)[C@@H](C(=O)O)C(C)C` displayed a GHS category of 5.

In the case of `CCN(CCOC(C)OCC(C)C)c1ccc(N=Nc2ccccc2)cc1` (stereo unspecified), the GHS category came to 4.

`COc1ccc(-c2ccccc2)cc1NNC(=O)OC(C)C`: the GHS category is recorded as 5.

`CCO[Si](CC(C)C)(OCC)OCC` registered a GHS category of 5.

The compound `CCCc1c(Cc2ccc(-c3ccccc3-c3nn[nH]n3)cc2)c(N(CC)CC)nc2ncnn12` displayed a GHS category of 4.

In turn, `CC(C)c1ccc(C(C)C)cc1` had a GHS category of 5.

In the case of `CC1CCC2(OC1)OC1CC3C4CC=C5CC(O)CCC5(C)C4CCC3(C)C1C2C` (stereo unspecified), the GHS category amounted to 5.

In the case of `FC(F)(F)c1cccc(C2=CCN(CCc3ccc4ccccc4c3)CC2)c1`, the GHS category came out at 4.

As for `CCOC(=O)CCSc1cc(NC(=O)C(=O)OCC)ncn1`, the GHS category is given as 4.

For `CC(C)C1(C)N=C(c2ncccc2C(=O)O)NC1=O` (stereo unspecified), the GHS category is reported as 5.

For the compound `NC(=O)c1ccc(NC(=O)c2ccc([N+](=O)[O-])cc2)cc1`, the GHS category stood at 5.

`Fc1ccccc1C1c2ccccc2CCN1c1cccc(C(F)(F)F)c1` (stereo unspecified) yielded a GHS category of 4.

The compound `NNC(=O)NN` came in with a GHS category of 5.

The compound `CCCCCCCCCC(OC)OC` had a GHS category of 5.

In turn, `O=C(O)CCCCCCCCCCCC(=O)O` gave a GHS category of 5.

For `CC(C)=CCSC[C@H](N)C(=O)O`, the GHS category is 5.

`CCOc1nc2cccc(C(=O)OC(C)OC(=O)OC3CCCCC3)c2n1Cc1ccc(-c2ccccc2-c2nnn[nH]2)cc1` (stereo unspecified) displayed a GHS category of 5.

For `COc1ccccc1N1CCN(/C(N)=N/c2cc(Cl)cc(Cl)c2)CC1`, the GHS category came to 4.

On to `CC(C)C1OCCN1CCOC(=O)NCCCCCCNC(=O)OCCN1CCOC1C(C)C` (stereo unspecified), for which the GHS category is reported as 5.

The compound `CC(CC=O)c1ccccc1` (stereo unspecified) registered a GHS category of 5.

Compound `CN(C)C1=NC(=O)C(c2ccccc2)O1` (stereo unspecified) returned a GHS category of 5.

In the case of `CC(C)CCCCCCCCCCOC(=O)CCCCC(=O)OCCCCCCCCCCC(C)C`, the GHS category stood at 5.

`CC(C)(C)OP(=O)(O)OC(C)(C)C` came in with a GHS category of 5.

Compound `COCCOc1nc(Nc2ccc(C=Cc3ccc(Nc4nc(OCCOC)nc(N(C)CCS(=O)(=O)O)n4)cc3S(=O)(=O)O)c(S(=O)(=O)O)c2)nc(N(C)CCS(=O)(=O)O)n1` registered a GHS category of 5.

The compound `CC1=NN(c2cccc(S(=O)(=O)O)c2)C(=O)C1` gave a GHS category of 5.

For `CC1CC(OC(=O)C(C)Oc2ccc(F)cc2)CC(C)(C)C1` (stereo unspecified), the GHS category amounted to 5.

Consider `O=COC1CCC2CCCCC2C1` (stereo unspecified), for which the GHS category is 5.

On to `CCOP(=S)(OCC)N(SN(C)C(=O)ON=C(C)SC)C1CCCCC1`, for which the GHS category was 3.

`Cc1cc(C(C)(C)C)c(O)c(C)c1CC#N` yielded a GHS category of 5.

`CSc1nc2cc(Cl)c(Oc3cccc(Cl)c3Cl)cc2[nH]1` gave a GHS category of 5.

`Clc1ccc(Oc2cccc(Cl)c2)cc1` displayed a GHS category of 5.

In turn, `Nc1ncnc2c1ncn2[C@@H]1O[C@H](CO)[C@@H](O)[C@@H]1O` yielded a GHS category of 5.

The compound `O=P(Oc1ccccc1)(Oc1ccccc1)Oc1cccc(OP(=O)(Oc2ccccc2)Oc2ccccc2)c1` had a GHS category of 5.

On to `COc1ccc(-c2nc(C)c(C(N)=O)s2)cc1`, for which the GHS category is 5.

With `NCCNS(=O)(=O)c1cccc2cnccc12`, the GHS category is on record as 4.

In turn, `Cc1cccc(OC(=O)c2cc(Cl)ccc2OC(N)=O)c1` registered a GHS category of 5.
